From PubChem BioAssay (NCI) come the findings set out here.

“And” between values parts separate entries of the source, which are not always exact repeats. Equal values may be shown once.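 Following 48 hours of exposure in 96-well plates, responses at five concentrations were used to interpolate endpoints linearly. GI50 = concentration required for 50% inhibition of growth. TGI marks complete inhibition of growth.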

Test systems include SK-OV-3 ovarian; SN12C renal; A549 NSCLC; IGROV1 ovarian; SW-620 colon; NCI-H23 lung; RPMI-8226 leukemia; OVCAR-8 ovarian; CCRF-CEM leukemia; COLO 205 colon.
Common to all, as to assay: growth of human tumour cells (NCI), 48 h

Regarding `CC1(C)OC(=O)C(=Cc2ccc(O)cc2)C(=O)O1`, the TGI in the test on SK-OV-3 ovarian, with SN12C renal, with A549 NSCLC, in the test on IGROV1 ovarian, in the test with SW-620 colon and in the test with NCI-H23 lung was > 100 µM each time. Also, the TGI in the test on RPMI-8226 leukemia, in the test with OVCAR-8 ovarian, with CCRF-CEM leukemia and with COLO 205 colon was > 100 µM each time.
In the case of `COc1ccc(NC(=O)c2cc(OC)cc(OC)c2)cc1`, the TGI was > 84.8 µM in the test on SK-OV-3 ovarian; > 100 µM in the test with SN12C renal; > 100 µM with A549 NSCLC; > 100 µM in the test with IGROV1 ovarian; > 100 µM in the test with SW-620 colon; > 100 µM in the test on NCI-H23 lung. In addition, the TGI with RPMI-8226 leukemia is > 100 µM; in the test on OVCAR-8 ovarian, > 100 µM; in the test on CCRF-CEM leukemia, > 100 µM; in the test on COLO 205 colon, > 42.8 µM.
`C[C@@H](CS(C)(=O)=O)Nc1ncc2cc(Oc3ccc(F)cc3F)c(=O)n(C)c2n1`: the GI50 in the test on SK-OV-3 ovarian, in the test on SN12C renal, in the test on A549 NSCLC, in the test on IGROV1 ovarian, in the test with SW-620 colon and with NCI-H23 lung was > 25 µM each time. In addition, the GI50 in the test with RPMI-8226 leukemia, with OVCAR-8 ovarian, in the test on CCRF-CEM leukemia and with COLO 205 colon was > 25 µM each time. The TGI with SK-OV-3 ovarian, with SN12C renal, with A549 NSCLC, with IGROV1 ovarian, in the test on SW-620 colon and with NCI-H23 lung was > 25 µM throughout. The TGI in the test on RPMI-8226 leukemia, in the test with OVCAR-8 ovarian, in the test on CCRF-CEM leukemia and in the test on COLO 205 colon was > 25 µM each time.
`COc1ccccc1NC(=O)CC(=O)n1nc(C)c(N=Nc2ccccc2C(=O)O)c1C`: the TGI with SK-OV-3 ovarian, in the test with SN12C renal, with A549 NSCLC, with IGROV1 ovarian, in the test on SW-620 colon and with NCI-H23 lung was > 100 µM in each case. Further, the TGI with RPMI-8226 leukemia, with OVCAR-8 ovarian, in the test with CCRF-CEM leukemia and in the test with COLO 205 colon was > 100 µM throughout.
As to `COC(=O)[C@@H](C)C[C@H](Cc1ccc(F)cc1)NC(=O)c1csc([C@@H](C[C@H](C(C)C)N(C)C(=O)[C@@H](NC(=O)[C@H]2CCCCN2C)C(C)C)OC(C)=O)n1`, the GI50 is 0.00736 µM and 0.0553 µM in the test with SK-OV-3 ovarian; 0.00197 µM and 0.013 µM in the test with SN12C renal; 0.00277 µM and 0.0107 µM in the test with A549 NSCLC; 0.00355 µM and 0.0134 µM with NCI-H23 lung; 0.00108 µM and 0.00682 µM with RPMI-8226 leukemia; 0.00256 µM and 0.0116 µM in the test on OVCAR-8 ovarian. In addition, the GI50 in the test with CCRF-CEM leukemia was 0.000973 µM and 0.00639 µM; in the test with COLO 205 colon, 0.00641 µM. In addition, the TGI in the test on SK-OV-3 ovarian, in the test with SN12C renal, in the test with A549 NSCLC, with IGROV1 ovarian, in the test with SW-620 colon and with NCI-H23 lung was > 16.7 µM in each case. In addition, the TGI in the test with RPMI-8226 leukemia was > 16.7 µM; in the test with OVCAR-8 ovarian, > 16.7 µM; in the test on CCRF-CEM leukemia, > 16.7 µM; in the test with COLO 205 colon, 0.0651 µM.
Take `NS(=O)(=O)c1ccccc1C(=O)N/N=C(\c1nc2ccc([N+](=O)[O-])cc2[nH]c1=O)C(O)c1ccc([N+](=O)[O-])cc1` (stereo not drawn): the TGI in the test with SK-OV-3 ovarian, in the test on SN12C renal, with A549 NSCLC, in the test with IGROV1 ovarian, in the test on SW-620 colon and with NCI-H23 lung was > 100 µM throughout. Besides, the TGI in the test on RPMI-8226 leukemia, with OVCAR-8 ovarian, with CCRF-CEM leukemia and with COLO 205 colon was > 100 µM each time.
Regarding `CC[C@@]12CCCN3CC[C@]4(c5cccc(OC)c5N(C(C)=O)[C@@H]4CC1)[C@H]32`, the TGI with SK-OV-3 ovarian, in the test with SN12C renal, in the test on A549 NSCLC, with IGROV1 ovarian, with SW-620 colon and with NCI-H23 lung was > 100 µM each time. Also, the TGI with RPMI-8226 leukemia was > 100 µM; with OVCAR-8 ovarian, > 100 µM; in the test with CCRF-CEM leukemia, 57.1 µM; in the test on COLO 205 colon it was > 100 µM.
In the case of `COc1cc2cnc3c4cc(OC(C)C)c(OC)cc4ccc3c2cc1OC`, the TGI in the test on SK-OV-3 ovarian, in the test with SN12C renal, in the test on A549 NSCLC, with IGROV1 ovarian, in the test with SW-620 colon and in the test on NCI-H23 lung was > 100 µM in each case. Besides, the TGI with RPMI-8226 leukemia, in the test on OVCAR-8 ovarian, in the test with CCRF-CEM leukemia and in the test on COLO 205 colon was > 100 µM throughout.
Regarding `O=c1cc(-c2cccc(O)c2)[nH]c2cc3c(cc12)OCO3`, the TGI in the test on SK-OV-3 ovarian is 8.27 µM; with SN12C renal, > 78 µM; in the test with A549 NSCLC, > 100 µM; with IGROV1 ovarian it was > 100 µM; in the test with SW-620 colon, > 100 µM; in the test on NCI-H23 lung, > 100 µM. Moreover, the TGI is > 100 µM in the test on RPMI-8226 leukemia, > 29.7 µM in the test with OVCAR-8 ovarian, > 100 µM in the test on CCRF-CEM leukemia and 9.32 µM in the test with COLO 205 colon.
`NC(CSC(c1ccccc1)(c1ccccc1)c1ccc2c(c1)OCO2)C(=O)O` (stereo not drawn): the GI50 in the test on SK-OV-3 ovarian was 0.42 µM; with SN12C renal, 0.633 µM; with A549 NSCLC, 0.635 µM; with IGROV1 ovarian it was 2.5 µM; in the test on SW-620 colon, 0.396 µM; in the test with NCI-H23 lung, 0.545 µM. Besides, the GI50 in the test with RPMI-8226 leukemia was 0.306 µM; with OVCAR-8 ovarian, 0.595 µM; in the test on CCRF-CEM leukemia, 0.306 µM; with COLO 205 colon, 0.325 µM. The TGI with SK-OV-3 ovarian is > 100 µM; with SN12C renal, > 100 µM; in the test with A549 NSCLC, > 100 µM; with IGROV1 ovarian, > 100 µM; with SW-620 colon, > 100 µM; in the test on NCI-H23 lung, 32 µM. The TGI in the test with RPMI-8226 leukemia was 3.77 µM; in the test on OVCAR-8 ovarian, > 100 µM; in the test with CCRF-CEM leukemia, > 41.5 µM; in the test on COLO 205 colon, 1.15 µM.
`O=C(/C=C/c1ccccc1Cl)c1ccc(Cl)c(Cl)c1`: the TGI was 51.3 µM in the test on SK-OV-3 ovarian; > 100 µM with SN12C renal; 40.8 µM with A549 NSCLC; 25 µM in the test on IGROV1 ovarian; 28.3 µM in the test on SW-620 colon; 36.4 µM with NCI-H23 lung. In addition, the TGI in the test on RPMI-8226 leukemia is > 100 µM; in the test with OVCAR-8 ovarian, 33 µM; in the test with CCRF-CEM leukemia it was 81.8 µM; with COLO 205 colon, > 100 µM.
Turning to `Nc1cc2nc3ccccc3sc-2cc1=O`, the GI50 in the test on SK-OV-3 ovarian is 13.1 µM; with SN12C renal, 1.72 µM; in the test with A549 NSCLC, 2.06 µM; with IGROV1 ovarian it was 3.02 µM; with SW-620 colon it was 2.95 µM; in the test with NCI-H23 lung it was 1.54 µM. Besides, the GI50 is 2.54 µM with RPMI-8226 leukemia, 3.17 µM in the test on OVCAR-8 ovarian, 2.47 µM with CCRF-CEM leukemia and 2.16 µM in the test with COLO 205 colon. Besides, the TGI in the test with SK-OV-3 ovarian turned out to be 53.5 µM; in the test with SN12C renal, 3.4 µM; in the test on A549 NSCLC, 4.82 µM; with IGROV1 ovarian, 13.1 µM; in the test with SW-620 colon, 10.4 µM; in the test on NCI-H23 lung it was 3.76 µM. Also, the TGI with RPMI-8226 leukemia is 26.4 µM; in the test on OVCAR-8 ovarian, 13.8 µM; with CCRF-CEM leukemia, > 100 µM; in the test on COLO 205 colon it was 4.61 µM.
For `Cc1cc2nc(C(Cl)Cl)nc(-c3ccc(Cl)cc3)n2n1`, the GI50 in the test on SK-OV-3 ovarian is 2.11 µM; in the test on SN12C renal it was 2.64 µM; with A549 NSCLC it was 0.448 µM; with IGROV1 ovarian, 1.38 µM; in the test on SW-620 colon, 0.433 µM; in the test on NCI-H23 lung it was 0.479 µM. The GI50 in the test with RPMI-8226 leukemia is 1.36 µM; in the test on OVCAR-8 ovarian it was 0.964 µM; in the test on CCRF-CEM leukemia, 2.83 µM; with COLO 205 colon, 0.603 µM. Further, the TGI in the test with SK-OV-3 ovarian is 7 µM; in the test with SN12C renal, > 100 µM; in the test with A549 NSCLC it was 3.28 µM; with IGROV1 ovarian, 5.28 µM; in the test on SW-620 colon, 2.93 µM; in the test with NCI-H23 lung, 2.42 µM. In addition, the TGI is 6.45 µM in the test on RPMI-8226 leukemia, > 100 µM in the test with OVCAR-8 ovarian, > 100 µM in the test with CCRF-CEM leukemia and 2.67 µM in the test with COLO 205 colon.
Consider `O=C1c2cccnc2-c2nc(-c3ccccc3[N+](=O)[O-])cc3c2c1nc1ccccc13`, for which the GI50 was 67 µM with SK-OV-3 ovarian; 15.6 µM with SN12C renal; 14.4 µM in the test with A549 NSCLC; 12.3 µM in the test on IGROV1 ovarian; 3.27 µM in the test on SW-620 colon; 3.67 µM with NCI-H23 lung. Further, the GI50 in the test with RPMI-8226 leukemia was > 23.8 µM; in the test on OVCAR-8 ovarian it was 13.1 µM; in the test on CCRF-CEM leukemia, > 100 µM; in the test on COLO 205 colon, 24.4 µM. Moreover, the TGI with SK-OV-3 ovarian was > 100 µM; in the test with SN12C renal it was 37.9 µM; in the test with A549 NSCLC, 30.1 µM; in the test on IGROV1 ovarian it was 83.3 µM; in the test with SW-620 colon, 18.9 µM; in the test with NCI-H23 lung it was 18.9 µM. The TGI is > 100 µM in the test on RPMI-8226 leukemia, 44.2 µM in the test with OVCAR-8 ovarian, > 100 µM with CCRF-CEM leukemia and > 62.4 µM in the test with COLO 205 colon.
Consider `CN(CC(=O)O)S(=O)(=O)c1ccc2ccccc2c1`, for which the TGI in the test on SK-OV-3 ovarian, in the test on SN12C renal, in the test on A549 NSCLC, in the test on IGROV1 ovarian, in the test on SW-620 colon and in the test on NCI-H23 lung was > 100 µM throughout. Moreover, the TGI in the test on RPMI-8226 leukemia, in the test with OVCAR-8 ovarian, with CCRF-CEM leukemia and with COLO 205 colon was > 100 µM each time.
